Values joined by “and” are separate entries in the source; they are usually repeats but may differ in a detail not shown here. Equal entries are not always repeated. ± gives the uncertainty stated by the source.
What was measured:
[1] = xn = mol fraction of the nth substance listed; details: 101 kPa

CC(C)COCCO
Details | viscosity [mPa·s]
298.15 K, 101 kPa | 3.33 ± 0.1

CC(=O)OCCC(C)C
viscosity
Details | 293.15 K | 303.15 K | 313.15 K
101 kPa | 0.86 ± 0.008 mPa·s | 0.743 ± 0.011 mPa·s and 0.7175 ± 0.0087 mPa·s and 0.7168 ± 0.0059 mPa·s | 0.642 ± 0.011 mPa·s
101.3 kPa | – | 0.6997 ± 0.07 mPa·s | –

CC(=O)OCCC(C)C + O=[N+]([O-])c1ccccc1
viscosity [mPa·s], [1]
Details | 298.15 K | 308.15 K
x1 = 0.0448 | 1.721 ± 0.01 | 1.488 ± 0.009
x1 = 0.1512 | 1.567 ± 0.009 | 1.367 ± 0.008
x1 = 0.249 | 1.439 ± 0.009 | 1.267 ± 0.008
x1 = 0.3494 | 1.321 ± 0.008 | 1.174 ± 0.007
x1 = 0.4412 | 1.222 ± 0.007 | 1.096 ± 0.007
x1 = 0.5 | 1.164 ± 0.007 | 1.05 ± 0.007
x1 = 0.5486 | 1.118 ± 0.007 | 1.014 ± 0.006
x1 = 0.6489 | 1.03 ± 0.007 | 0.945 ± 0.006
x1 = 0.7486 | 0.951 ± 0.006 | 0.882 ± 0.006
x1 = 0.8513 | 0.876 ± 0.006 | 0.823 ± 0.006
x1 = 0.9464 | 0.814 ± 0.006 | 0.773 ± 0.005

Cl + CCCCCCCO
[1], 298.15 K
Details | viscosity [mPa·s]
x1 = 0.05 | 6.22 ± 0.2
x1 = 0.1 | 7.02 ± 0.22
x1 = 0.15 | 7.6 ± 0.23
x1 = 0.19 | 8.18 ± 0.24
x1 = 0.23 | 8.66 ± 0.26
x1 = 0.26 | 9.02 ± 0.27
x1 = 0.29 | 9.22 ± 0.27
x1 = 0.32 | 9.3 ± 0.27
x1 = 0.34 | 9.26 ± 0.27
x1 = 0.37 | 9.08 ± 0.27
x1 = 0.39 | 8.86 ± 0.26
x1 = 0.41 | 8.62 ± 0.26
x1 = 0.43 | 8.4 ± 0.25
x1 = 0.45 | 8.2 ± 0.25

CCOP(OCC)OCC + N#Cc1ccccc1
[1], 298.15 K
Details | viscosity [mPa·s]
x1 = 0.2 | 1.089 ± 0.012
x1 = 0.4 | 0.963 ± 0.012
x1 = 0.6 | 0.848 ± 0.012
x1 = 0.8 | 0.781 ± 0.012

CCCOCC(C)OCC(C)O (stereo unspecified) + CCCO
[1], 298.15 K
Details | viscosity [mPa·s]
x1 = 0.0061 | 1.977 ± 0.015
x1 = 0.0137 | 1.998 ± 0.015
x1 = 0.028 | 2.036 ± 0.015
x1 = 0.0763 | 2.163 ± 0.016
x1 = 0.1234 | 2.28 ± 0.017
x1 = 0.1783 | 2.416 ± 0.017
x1 = 0.2361 | 2.556 ± 0.018
x1 = 0.3132 | 2.74 ± 0.019
x1 = 0.3684 | 2.862 ± 0.019
x1 = 0.4279 | 2.985 ± 0.02
x1 = 0.4905 | 3.102 ± 0.02
x1 = 0.5267 | 3.164 ± 0.021
x1 = 0.5714 | 3.239 ± 0.021
x1 = 0.6634 | 3.388 ± 0.022
x1 = 0.7271 | 3.495 ± 0.022
x1 = 0.8017 | 3.617 ± 0.023
x1 = 0.8701 | 3.728 ± 0.023
x1 = 0.9055 | 3.78 ± 0.024
x1 = 0.9497 | 3.837 ± 0.024

O=C(O)C1CCCCC1
101 kPa
Details | viscosity [mPa·s]
310 K | 13.2 ± 0.2
320 K | 9.26 ± 0.15
